Data: patent US12329158B2, “Large-scale methods of uniformly coating packaging surfaces with a volatile antimicrobial to preserve food freshness” (AGROFRESH INC., priority 2013, dated 2025)
In brackets after ≈: the same amount, converted by molar mass.

Legend:
Epidermophyton floccus [1] = assay: In vitro contact assay (Example 26); assay type: cell-based; settings: 5 days at 28 C, 100% control; for MIC: Epidermophyton, 120 h, read-out: MIC (mg/L) Epidermophyton floccus
Description: (§1) Half-strength Potato Dextrose Agar (PDA) is amended with a mixture of one of the test compounds in acetone or methanol to a final concentration of 50, 10, 2, 0.4 or 0.08 mg/L. A 3-mL volume of the amended media is added to each well of the microtiter plate. […] The plates are sealed with a clear film and incubated inverted for 5 days at 28° C.

[2] = tested on: Trichophyton mentagrophytes; assay: In vitro contact assay (Example 26); assay type: cell-based; settings: 5 days at 28 C, 100% control; for MIC: Trichophyton mentagrophytes, 120 h, read-out: MIC (mg/L) Trichophyton mentagrophytes
Description: as §1

Trichophyton rubrum [3] = assay: In vitro contact assay (Example 26); assay type: cell-based; settings: 5 days at 28 C, 100% control; for MIC: Trichophyton rubrum, 120 h, read-out: MIC (mg/L) Trichophyton rubrum
Description: as §1

Epidermophyton floccus [4] = assay: In vitro volatile assay (Example 26); assay type: cell-based; settings: 5 days at 28 C, 100% control; for MIC: Epidermophyton, 120 h, read-out: MIC (mg/L) Epidermophyton floccus
Description: (§2) Volatile assay: 6-well (16.5 mL volume per well) microtiter plates are used in an in vitro inhibition assay for Compounds A and 31, and compared to other registered fungicides (5-fluorocytosine, Amphotericin B, aspofungin diacetate, Fluconazole and Itraconazole). A 7.5-mL volume of half strength PDA is added to each well. After drying, a mycelial plug (5 mm diameter) is aseptically obtained from actively growing cultures of Epidermophyton floccus, Trichophyton rubrum, or Trichophyton mentagrophytes and placed at the center of the plate with the mycelial side in contact with the agar. A Whatman #1 filter disk (Cat. No. 1001-325) is placed, in duplicate, on the underside of a polyethylene PCR plate sealing film. […] The headspace around the inoculum is then sealed inside the well by the film with the adhering disk containing the fungicide and incubated inverted for 5 days at 28° C.

[5] = tested on: Trichophyton mentagrophytes; assay: In vitro volatile assay (Example 26); assay type: cell-based; settings: 5 days at 28 C, 100% control; for MIC: Trichophyton mentagrophytes, 120 h, read-out: MIC (mg/L) Trichophyton mentagrophytes
Description: as §2

Trichophyton rubrum [6] = assay: In vitro volatile assay (Example 26); assay type: cell-based; settings: 5 days at 28 C, 100% control; for MIC: Trichophyton rubrum, 120 h, read-out: MIC (mg/L) Trichophyton rubrum
Description: as §2

Penicillium digitatum [7] = assay: Green mold on orange, volatile assay (Example 25); assay type: in vivo; settings: 50 mg/L, day 3 at 21 C after 5 days at 1 C
Penicillium expansum [8] = assay: Blue mold on apple and pear, contact assay (Example 25); assay type: in vivo; settings: Contact (dip); rate not given; day 3 at 21 C after 5 days at 1 C
Description: (§3) A 250 mL solution of each concentration is used to dip two inoculated fruits, one minute per fruit, performed in triplicate per rate. The dipped fruits are then placed back into the clamshells and then into the SnapWare container and incubated at 1° C. for 5 days. […] Volatile application of Compound A results in excellent inhibition of browning and sporulation, whereas all other active ingredients result in no or little inhibition.

Penicillium digitatum [9] = assay: Green mold on orange, contact assay (Example 25); assay type: in vivo; settings: Contact (dip); rate not given; day 3 at 21 C after 5 days at 1 C
Description: as §3

Penicillium expansum [10] = assay: Blue mold on apple and pear, volatile assay (Example 25); settings: 50 mg/L, day 3 at 21 C after 5 days at 1 C
Description: Two apples, pears or oranges are placed in a clamshell, and three fresh wounds are made near the equatorial region of each fruit. Each fruit wound is then inoculated with 20 μL of 1×10^6 spores per mL of Penicillium expansum or digitatum suspension, respectively. The inoculum is allowed to dry for two hours prior to treatment application as a volatile or contact.
Volatile Assay: Clamshells are then placed at the bottom of a 2.55-L SnapWare airtight container (Model #109842). […] The solutions are pipetted into Whatman filter disks mounted to the inside lid of the container. The chambers are then incubated at 1° C. for 5 days, removed to 21° C., and evaluated on day 3 by determining the diameter (mm) of rot development (browning) or sporulation.

Alternaria alternata = assay: Volatile MIC assay (Example 9); assay type: cell-based; settings: 72 h, headspace concentration, 3 days at 23 C, read-out: MIC (mg/L) ALTEAL
Description: (§4) A 3-mL volume of full-strength Potato Dextrose Agar (PDA) is added to each well. […] Plates are inoculated immediately prior to volatile fungicide treatment. A Whatman #1 filter disk (Cat. No. 1001-0155) is placed, in duplicate, on the underside of a polyethylene PCR plate sealing film. […] The acetone is permitted to evaporate for 5 minutes. The headspace around the inoculum is then sealed inside the well by the film with the adhering disk containing the fungicide by inverting the plates over the treated disks and sealing to prevent any of the chemical from flaking from the disk and falling onto the inoculated agar.

Botrytis cinerea [11] = assay: Volatile MIC assay (Example 9); assay type: cell-based; settings: 72 h, headspace concentration, 3 days at 23 C, read-out: MIC (mg/L) BOTRCI
Description: as §4

Glomerella cingulata = assay: Volatile MIC assay (Example 9); assay type: cell-based; settings: Colletotrichum gloeosporioides, 72 h, headspace concentration, 3 days at 23 C, read-out: MIC (mg/L) GLOMCI
Description: as §4

Monilinia fructicola = assay: Volatile MIC assay (Example 9); assay type: cell-based; settings: 72 h, headspace concentration, 3 days at 23 C, read-out: MIC (mg/L) MONIFC
Description: as §4

Penicillium expansum [12] = assay: Volatile MIC assay (Example 9); assay type: cell-based; settings: 72 h, headspace concentration, 3 days at 23 C, read-out: MIC (mg/L) PENIEX
Description: as §4

B. cinerea = assay: In vitro contact assay, amended agar (Example 24); assay type: cell-based; settings: Botrytis cinerea, 72 h; amended agar; 100% control; 3 days at 23 C; read-out: Contact MIC (mg/L) B. cinerea
Description: (§5) Contact assay: 6-well (16.5 mL volume per well) microtiter plates are used for an in vitro inhibition assay. […] A 7.5-mL volume of the amended media is added to each well of the microtiter plate. […] The plates are sealed with a clear film and incubated for 3 days at 23° C. After incubation, plates are evaluate for percent growth relative to acetone only control.

P. expansum = assay: In vitro contact assay, amended agar (Example 24); assay type: cell-based; settings: Penicillium expansum, 72 h; amended agar; 100% control; 3 days at 23 C; read-out: Contact MIC (mg/L) P. expansum
Description: as §5

Botrytis cinerea [13] = assay: In vitro volatile assay (Example 24); assay type: cell-based; settings: 72 h, headspace, 100% control, 3 days at 23 C, read-out: Volatile MIC (mg/L) B. cinerea
Description: (§6) Volatile assay: 12-well (6.5 mL volume per well) microtiter plates are used. A 3-mL volume of half strength PDA is added to each well. […] A Whatman #1 filter disk (Cat. No. 1001-0155) is placed, in duplicate, on the underside of a polyethylene PCR plate sealing film. […] The acetone is permitted to evaporate for 5 minutes. The headspace around the inoculum is then sealed inside the well by the film with the adhering disk containing the fungicide. Plates are inverted, placed over the treated disks, and sealed to prevent any of the chemical from flaking from the disk and falling onto the inoculated agar. […] Contact assay: 6-well (16.5 mL volume per well) microtiter plates are used for an in vitro inhibition assay. […] A 7.5-mL volume of the amended media is added to each well of the microtiter plate. […] The plates are sealed with a clear film and incubated for 3 days at 23° C. After incubation, plates are evaluate for percent growth relative to acetone only control.

Penicillium expansum [14] = assay: In vitro volatile assay (Example 24); assay type: cell-based; settings: 72 h, headspace, 100% control, 3 days at 23 C, read-out: Volatile MIC (mg/L) P. expansum
Description: as §6

Molecule | Orange Sporulation (mm) (Penicillium digitatum [7]) | Apple Browning (mm) (Penicillium expansum [8]) | Apple Sporulation (mm) (Penicillium expansum [8]) | Pear Browning (mm) (Penicillium expansum [8]) | Pear Sporulation (mm) (Penicillium expansum [8]) | Orange Sporulation (mm) (Penicillium digitatum [9]) | Apple Browning (mm) (Penicillium expansum [10]) | Apple Sporulation (mm) (Penicillium expansum [10]) | Pear Browning (mm) (Penicillium expansum [10]) | Pear Sporulation (mm) (Penicillium expansum [10]) | MIC (Alternaria alternata) [mg/L] | MIC (Botrytis cinerea [11]) [mg/L] | MIC (Glomerella cingulata) [mg/L] | MIC (Monilinia fructicola) [mg/L] | MIC (Penicillium expansum [12]) [mg/L] | also measured
Nc1nc(=O)[nH]cc1F [5-Fluorocytosine, 5-fluorocytosine] |  |  |  |  |  |  |  |  |  |  |  |  |  |  |  | MIC (Epidermophyton floccus [1]): > 50 mg/L; MIC [2]: > 50 mg/L; MIC (Trichophyton rubrum [3]): > 50 mg/L; MIC (Epidermophyton floccus [4]): > 50 mg/L; MIC [5]: > 50 mg/L; MIC (Trichophyton rubrum [6]): > 50 mg/L
C[C@@H]1[C@H](O)[C@@H](C)/C=C/C=C/C=C/C=C/C=C/C=C/C=C/[C@H](O[C@@H]2O[C@H](C)[C@@H](O)[C@H](N)[C@@H]2O)C[C@@H]2O[C@](O)(C[C@@H](O)C[C@@H](O)[C@H](O)CC[C@@H](O)C[C@@H](O)CC(=O)O[C@H]1C)C[C@H](O)[C@H]2C(=O)O [Amphotericin B] |  |  |  |  |  |  |  |  |  |  |  |  |  |  |  | MIC (mg/L) Epidermophyton floccus (Epidermophyton floccus [1]): 50.0 mg/L (≈ 54.1 µM); MIC (mg/L) Trichophyton mentagrophytes [2]: >50 mg/L; MIC (mg/L) Trichophyton rubrum (Trichophyton rubrum [3]): >50 mg/L; MIC (mg/L) Epidermophyton floccus (Epidermophyton floccus [4]): >50 mg/L; MIC (mg/L) Trichophyton mentagrophytes [5]: >50 mg/L; MIC (mg/L) Trichophyton rubrum (Trichophyton rubrum [6]): >50 mg/L
O=C(Nc1ccccc1-c1ccc(Cl)cc1)c1cccnc1Cl [Boscalid] | 30.3 | 7.0 | 0.8 | 8.6 | 2.3 | >50 | 10.3 | 2.4 | 14.3 | 3.6 |  |  |  |  |  | 
COB1OCc2ccccc21 [Compound 6] |  |  |  |  |  |  |  |  |  |  | 4.5 (≈ 30.4 µM) | 2.2 (≈ 14.9 µM) | 17.9 (≈ 121 µM) | 8.9 (≈ 60.1 µM) | 17.9 (≈ 121 µM) | MIC (B. cinerea): 2 mg/L (≈ 13.5 µM); MIC (P. expansum): 2 mg/L (≈ 13.5 µM); MIC (Botrytis cinerea [13]): 4.5 mg/L (≈ 30.4 µM); MIC (Penicillium expansum [14]): 17.9 mg/L (≈ 121 µM)
COCCCOB1OCc2ccccc21 [Compound 7] |  |  |  |  |  |  |  |  |  |  | 8.9 (≈ 43.2 µM) | 2.2 (≈ 10.7 µM) | 71.4 (≈ 347 µM) | 8.9 (≈ 43.2 µM) | 17.9 (≈ 86.9 µM) | 
COCCOB1OCc2ccccc21 [Compound 8] |  |  |  |  |  |  |  |  |  |  | 8.9 (≈ 46.3 µM) | 2.2 (≈ 11.5 µM) | 71.4 (≈ 372 µM) | 4.5 (≈ 23.4 µM) | 35.7 (≈ 186 µM) | 
CC(C)OB1OCc2ccccc21 [Compound 9] |  |  |  |  |  |  |  |  |  |  | 8.9 (≈ 50.6 µM) | 2.2 (≈ 12.5 µM) | 35.7 (≈ 203 µM) | 8.9 (≈ 50.6 µM) | 8.9 (≈ 50.6 µM) | 
OB1OCc2cc(Cl)ccc21 [Compound 201] |  |  |  |  |  |  |  |  |  |  | 16.1 (≈ 95.6 µM) | 3.8 (≈ 22.6 µM) | 9.3 (≈ 55.2 µM) | 8.5 (≈ 50.5 µM) | 29.5 (≈ 175 µM) | 
OC(Cn1cncn1)(Cn1cncn1)c1ccc(F)cc1F [Fluconazole] |  |  |  |  |  |  |  |  |  |  |  |  |  |  |  | MIC (Epidermophyton floccus [1]): 10 mg/L (≈ 32.7 µM); MIC [2]: > 50 mg/L; MIC (Trichophyton rubrum [3]): 50 mg/L (≈ 163 µM); MIC (Epidermophyton floccus [4]): > 50 mg/L; MIC [5]: > 50 mg/L; MIC (Trichophyton rubrum [6]): > 50 mg/L
N#Cc1c[nH]cc1-c1cccc2c1OC(F)(F)O2 [Fludioxonil] | 40.8 | 2.9 | 0.0 | 3.3 | 0.0 | 8.3 | 11.2 | 3.1 | 12.8 | 2.8 |  |  |  |  |  | 
C=CCOC(Cn1ccnc1)c1ccc(Cl)cc1Cl (stereo not shown) [Imazalil] | 41.4 | 6.9 | 0.9 | 7.9 | 1.0 | 0.0 | 11.1 | 3.0 | 14.3 | 3.4 |  |  |  |  |  | 
CCC(C)n1ncn(-c2ccc(N3CCN(c4ccc(OCC5COC(Cn6cncn6)(c6ccc(Cl)cc6Cl)O5)cc4)CC3)cc2)c1=O (stereo not shown) [Itraconazole] |  |  |  |  |  |  |  |  |  |  |  |  |  |  |  | MIC (Epidermophyton floccus [1]): > 50 mg/L; MIC [2]: > 50 mg/L; MIC (Trichophyton rubrum [3]): > 50 mg/L; MIC (Epidermophyton floccus [4]): > 50 mg/L; MIC [5]: > 50 mg/L; MIC (Trichophyton rubrum [6]): > 50 mg/L
Cc1cc(C)nc(Nc2ccccc2)n1 [Pyrimethanil] | 22.3 | 8.1 | 2.4 | 8.9 | 5.2 | 0.0 | 11.3 | 2.6 | 14.0 | 6.5 |  |  |  |  |  | 
c1ccc2[nH]c(-c3cscn3)nc2c1 [Thiabendazole] | >50 | 8.2 | 1.9 | 9.1 | 5.4 | 0.0 | 8.4 | 2.0 | 12.9 | 3.0 |  |  |  |  |  | 
Caspofungin diacetate |  |  |  |  |  |  |  |  |  |  |  |  |  |  |  | MIC (mg/L) Epidermophyton floccus (Epidermophyton floccus [1]): 2.0 mg/L; MIC (mg/L) Trichophyton mentagrophytes [2]: 50.0 mg/L; MIC (mg/L) Trichophyton rubrum (Trichophyton rubrum [3]): 10.0 mg/L; MIC (mg/L) Epidermophyton floccus (Epidermophyton floccus [4]): >50 mg/L; MIC (mg/L) Trichophyton mentagrophytes [5]: >50 mg/L; MIC (mg/L) Trichophyton rubrum (Trichophyton rubrum [6]): >50 mg/L
